Results: PMC11509018, “Evaluation of the Role of Tanshinone I in an In Vitro System of Charcot-Marie-Tooth Disease Type 2N” (International Journal of Molecular Sciences, 2024)

Molecular target: T1, AlaRS R329H binding to GST-Nrp1 b1 (Homo sapiens, UniProt P49588, R329H)
T1 construct: made in house; host or cells: E. coli BL21 (DE3), pET-21a for AlaRS
T1 sequence (P49588 1-968 R329H): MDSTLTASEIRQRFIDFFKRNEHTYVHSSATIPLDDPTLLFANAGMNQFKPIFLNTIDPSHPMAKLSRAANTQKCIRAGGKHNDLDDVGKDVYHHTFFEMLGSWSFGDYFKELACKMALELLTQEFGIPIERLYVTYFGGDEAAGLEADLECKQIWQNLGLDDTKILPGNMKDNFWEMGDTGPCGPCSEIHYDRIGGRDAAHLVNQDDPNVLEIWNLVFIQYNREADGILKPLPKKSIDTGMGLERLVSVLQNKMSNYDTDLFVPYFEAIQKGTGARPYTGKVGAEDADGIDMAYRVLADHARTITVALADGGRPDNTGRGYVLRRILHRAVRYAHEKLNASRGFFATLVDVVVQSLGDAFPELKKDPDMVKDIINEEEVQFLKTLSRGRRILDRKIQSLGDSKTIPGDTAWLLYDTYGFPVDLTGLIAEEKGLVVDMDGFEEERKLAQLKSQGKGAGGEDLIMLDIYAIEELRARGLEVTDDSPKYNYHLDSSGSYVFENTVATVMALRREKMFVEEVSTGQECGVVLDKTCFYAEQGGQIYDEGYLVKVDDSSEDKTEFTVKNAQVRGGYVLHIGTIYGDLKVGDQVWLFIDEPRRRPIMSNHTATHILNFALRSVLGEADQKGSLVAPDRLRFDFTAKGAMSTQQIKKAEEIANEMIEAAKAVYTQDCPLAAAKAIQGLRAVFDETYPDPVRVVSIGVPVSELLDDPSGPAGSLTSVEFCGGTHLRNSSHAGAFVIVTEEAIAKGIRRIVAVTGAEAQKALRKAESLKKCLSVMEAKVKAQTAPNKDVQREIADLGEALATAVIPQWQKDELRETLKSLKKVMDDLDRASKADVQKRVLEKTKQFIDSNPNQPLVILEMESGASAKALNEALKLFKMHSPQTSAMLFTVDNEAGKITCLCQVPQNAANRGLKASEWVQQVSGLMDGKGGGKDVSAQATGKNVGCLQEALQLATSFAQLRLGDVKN
Experiment: GST pull down assay
Details: 20 µM Tanshinone I, ImageJ, average of three repeats
Experimental: To further investigate whether Tanshinone I-induced conformational changes in AlaRS CMT mutants affect their interaction with Nrp1, Co-IP experiments were performed in cells treated with Tanshinone I. By comparing Co-IP results obtained before and after treatment, we assessed the influence of the drug on the binding strength and mode between the AlaRS CMT mutants and Nrp1. […] To confirm the direct effect of Tanshinone I on the interaction between AlaRS CMT mutants and Nrp1, pull-down experiments were performed. […] Given that the interaction between AlaRS mutants and Nrp1 is associated with disease progression in CMT, the ability of Tanshinone I to disrupt this binding highlights its potential to intervene in the pathogenic mechanisms of these diseases.
Figure 7 The impact of Tanshinone I on the interaction between AlaRS mutants and Nrp1. (A) Co-IP assays were conducted to assess the binding between HA-AlaRS mutants and Nrp1, both with and without treatment with 20 µM Tanshinone I for 24 h. […] (C) Pull down assay was performed to detect the binding between AlaRS mutants and GST-Nrp1 b1 with or without 20 µM Tanshinone I. (D) Relative quantification statistics of the AlaRS mutants pulled down from the GST pull down experiments after Tanshinone I treatment were performed using ImageJ. (E) The cell viability of 293T and NSC34 cells treated with different concentrations of Tanshinone I was assessed using the CCK-8 assay over a 24 h period. TEXT PRINTED IN THE PICTURE: (B) Tanshinone I: Mean density band (N71Y): 0.60; Mean density band (G102R): 0.53; Mean density band (R326W): 0.50; Mean density band (R329H): 0.50; Mean density band (E337K): 0.62 | (D) Tanshinone I: Mean density band (N71Y): 0.82; Mean density band (G102R): 0.76; Mean density band (R326W): 0.84; Mean density band (R329H): 0.84; Mean density band (E337K): 0.90
To detect the direct interactions between the mutant proteins and Nrp1 in vitro, we performed a Glutathione S-transferase (GST) pull-down assay. AlaRS mutants fused with 6 × His were purified with Ni-NTA beads, followed by chromatography on a HiTrap Q HP column. Nrp1 b1 fragments fused with GST were purified with Glutathione Beads (#SA008100, Smart-Lifesciences, Changzhou, China). For GST pull-down assays, 1000 μg of each GST-fused Nrp1 b1 fragment was mixed with 200 μg of 6 × His-tagged fusion protein in binding buffer (50 mM Tris-HCl pH 7.5, 20 mM NaCl, 5% glycerol, 5 mM DTT with 0.1% BSA) at 4 °C overnight. The mixture was next incubated with 30 μL glutathione beads at 4 °C with constant rotation for 2–4 h. Subsequently, the bead/protein complex was washed three times, and eluted with 30 μL 2 × SDS sample buffer. The samples were then subjected to SDS-PAGE analysis. The experiment was repeated three times.

`Cc1coc2c1C(=O)C(=O)c1c-2ccc2c(C)cccc12` [Tanshinone I] was tested, and the “Mean density band (R329H), relative quantification of AlaRS mutant pulled down” value was 0.84.
